Measurements taken from article PMC9440028, “Neurotensin analogs by fluoroglycosylation at N^ω-carbamoylated arginines for PET imaging of NTS1-positive tumors” (Scientific Reports, 2022).
Where two headings read alike, the source gives them in different places.

Assays:
[1] = molecular target: T1, hNTS1R (Homo sapiens, UniProt P30989); experiment: Radioligand competition binding with [^3H]UR-MK300 at intact HT-29 cells; conditions: [^3H]UR-MK300 (Kd = […], c = 1 nM), 23 °C
T1 construct: at hNTS1R expressing intact human HT-29 colon carcinoma cells; endogenous in cells; host or cells: HT-29 human colon carcinoma cells (intact)
T1 sequence (P30989 whole entry): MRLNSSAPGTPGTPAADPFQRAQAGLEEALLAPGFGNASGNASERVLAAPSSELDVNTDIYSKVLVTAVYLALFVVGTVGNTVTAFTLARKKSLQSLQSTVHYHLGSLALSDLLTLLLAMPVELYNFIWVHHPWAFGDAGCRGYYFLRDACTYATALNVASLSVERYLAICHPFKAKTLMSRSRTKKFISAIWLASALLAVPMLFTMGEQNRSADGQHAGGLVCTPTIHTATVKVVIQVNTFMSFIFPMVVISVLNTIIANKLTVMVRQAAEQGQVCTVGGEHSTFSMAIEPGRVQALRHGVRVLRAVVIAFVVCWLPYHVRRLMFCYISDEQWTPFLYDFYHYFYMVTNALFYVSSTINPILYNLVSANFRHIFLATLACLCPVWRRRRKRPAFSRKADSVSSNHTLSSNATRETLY
Description: Unspecific binding was subtracted from total binding to obtain specific binding. Data analysis was performed by plotting % specifically bound radioligand (100% = specifically bound radioligand in the absence of competitor) over log(concentration of competitor) followed by a four-parameter logistic fit (SigmaPlot 12.5, Systat Software). […] The Ki values from individual experiments were transformed to pKi values, followed by the calculation of mean pKi values ± SEM.

[2] = In vitro stability in human plasma/PBS (1:2 v/v) at 37 °C; type: in vitro ADME; conditions: human blood plasma/PBS (1:2 v/v), read-out: % intact peptide in human plasma after the given incubation time; for remaining at 1 h, 100 µM: pH 7.4, 1 h; for remaining at 6 h, 100 µM: pH 7.4, 6 h; for remaining at 24 h, 100 µM: pH 7.4, 24 h; for remaining at 48 h, 100 µM: pH 7.4, 48 h; for remaining at 10 min, 100 µM: pH 7.4, 10 min; for remaining at 25 min, 100 µM: pH 7.4, 25 min; for remaining at 2 h, 100 µM: pH 7.4, 2 h
Description: The metabolic stabilities of 11–14, 16 and 18–21 (cf. Table 2) were investigated in human blood plasma/PBS (136.9 mM NaCl, 2.68 mM KCl, 5.62 mM Na2HPO4, 1.09 mM NaH2PO4 and 1.47 mM KH2PO4) pH 7.4 (1:2, v/v) according to a described procedure[13] with the following modifications: 5 mM stock solutions in EtOH/0.04% aq TFA (30:70 v/v) (11–13), MeCN/0.025% aq TFA (30:70 v/v) (14), MeCN/0.04% aq TFA (30:70 v/v) (16, 19 and 21) or EtOH/H2O (40:60 v/v) (18, 20) were used for the addition of the peptides to plasma/PBS (1:2 v/v). As the RP-HPLC purity of 1-Methyl-D-Trp (internal standard, IS) was < 95% (data not shown), the compound was purified by preparative HPLC to give a purity of > 99%. The concentration of the peptides in plasma/PBS (1:2 v/v) was 80 and 4 µM (recovery determination) or 100 µM (stability tests). The obtained recoveries and the recovery ratios (peptide/internal standard) are summarized in Supplementary Table S1. Data analysis was based on UV detection at 220 nm. Additionally, the stability of compound 21 was investigated in mouse plasma/PBS (1:2 v/v) using the same procedure as described above for human plasma. Mouse plasma was obtained by the collection of blood from anaesthetized mice via cardiac puncture using a syringe that was rinsed with sodium heparin (25,000 I.E., Ratiopharm, Ulm, Germany). The heparinized blood was transferred into a 2-mL reaction vessel, followed by centrifugation (1200 g, 4 °C, 10 min). The supernatants were pooled, centrifuged again (1200 g, 4 °C, 10 min), the plasma was aliquoted and stored at − 80 °C. The concentration of 21 in plasma/PBS (1:2 v/v) was 80 and 4 μM (recovery determination) or 100 μM (stability tests). The obtained recoveries and the recovery ratios (21/IS) are summarized in Supplementary Table S2. Data analysis was based on UV detection at 220 nm.

[3] = read-out: pKi ± SEM (converted)

SMILES | Ki ([1]; mean, read-out: Ki (converted)) | remaining at 1 h, 100 µM [2] | remaining at 6 h, 100 µM [2] | remaining at 24 h, 100 µM [2] | remaining at 48 h, 100 µM [2] | Ki [1, 3] | remaining at 10 min, 100 µM [2] | remaining at 25 min, 100 µM [2] | remaining at 2 h, 100 µM [2] | pKi ± SEM [1] | Ki ([1]; mean)
C#CCCC(=O)NCCCCNC(=O)NC(=N)NCCC[C@H](NC)C(=O)N[C@@H](CCCNC(=N)N)C(=O)N1CCC[C@H]1C(=O)N[C@@H](Cc1ccc(O)cc1)C(=O)N[C@H](C(=O)N[C@@H](CC(C)C)C(=O)O)C(C)(C)C [Compound 19, N^α-methyl-{N^ω-[N-(4-pent-4-ynoylaminobutyl)aminocarbonyl]}Arg-Arg-Pro-Tyr-2-tert-butyl-Gly-Leu-OH tris(hydrotrifluoroacetate)] | 7.7 nM | > 99% | > 99% | > 99% | 99 ± 1% | – | – | – | – | – | –
C#CCCCCNC(=O)NC(=N)NCCC[C@H](NC(=O)[C@H](CCCNC(=N)N)NC)C(=O)N1CCC[C@H]1C(=O)N[C@@H](Cc1ccc(O)cc1)C(=O)N[C@H](C(=O)N[C@@H](CC(C)C)C(=O)O)C(C)(C)C [Compound 9, N^α-(N^α-methylarginyl)-N^ω-(5-hexynylaminocarbonyl)Arg-Pro-Tyr-2-tert-butyl-Gly-Leu-OH tris(hydrotrifluoroacetate)] | 7.7 nM | – | – | – | – | 7.41 nM | – | – | – | – | –
CC(C)C[C@H](NC(=O)[C@@H](NC(=O)[C@H](Cc1ccc(O)cc1)NC(=O)[C@@H]1CCCN1C(=O)[C@H](CCCNC(=N)NC(=O)NCCCCc1cn([C@@H]2O[C@H](CF)[C@@H](O)[C@H](O)[C@H]2O)nn1)NC(=O)[C@@H](N)CCCNC(=N)N)C(C)(C)C)C(=O)O [Compound 12, H-Arg-{N^ω-[N-(4-{1-[6-deoxy-6-fluoro-β-D-glucopyranosyl]-1H-1,2,3-triazol-4-yl}butyl)aminocarbonyl]}Arg-Pro-Tyr-2-tert-butyl-Gly-Leu-OH tris(hydrotrifluoroacetate)] | 5.8 nM | < 1% | – | – | – | 5.5 nM | 86 ± 1% | 28 ± 1% | < 1% | – | –
C#CCCCCNC(=O)NC(=N)NCCC[C@H](NC(=O)[C@@H](N)CCCNC(=N)N)C(=O)N1CCC[C@H]1C(=O)N[C@@H](Cc1ccc(O)cc1)C(=O)N[C@H](C(=O)N[C@@H](CC(C)C)C(=O)O)C(C)(C)C [Compound 8, H-Arg-(N^ω-5-hexynylaminocarbonyl)Arg-Pro-Tyr-2-tert-butyl-Gly-Leu-OH tris(hydrotrifluoroacetate)] | 9.4 nM | – | – | – | – | – | – | – | – | 8.03 ± 0.03 | –
CC(C)C[C@H](NC(=O)[C@@H](NC(=O)[C@H](Cc1ccc(O)cc1)NC(=O)[C@@H]1CCCN1C(=O)[C@H](CCCNC(=N)N)NC(=O)[C@@H](N)CCCNC(=N)NC(=O)NCCCCN)C(C)(C)C)C(=O)O [Compound 14, N^ω-[(4-aminobutyl)aminocarbonyl]Arg-Arg-Pro-Tyr-2-tert-butyl-Gly-Leu-OH tetrakis(hydrotrifluoroacetate)] | 2.2 nM | < 1% | < 1% | < 1% | – | 2.04 nM | 50 ± 2% | – | – | – | –
C#CCCCCNC(=O)NC(=N)NCCC[C@H](N)C(=O)N[C@@H](CCCNC(=N)N)C(=O)N1CCC[C@H]1C(=O)N[C@@H](Cc1ccc(O)cc1)C(=O)N[C@H](C(=O)N[C@@H](CC(C)C)C(=O)O)C(C)(C)C [Compound 7, H-(N^ω-5-hexynylaminocarbonyl)Arg-Arg-Pro-Tyr-2-tert-butyl-Gly-Leu-OH tris(hydrotrifluoroacetate)] | 4.6 nM | – | – | – | – | 4.37 nM | – | – | – | – | –
CN[C@@H](CCCNC(=N)NC(=O)NCCCCN)C(=O)N[C@@H](CCCNC(=N)N)C(=O)N1CCC[C@H]1C(=O)N[C@@H](Cc1ccc(O)cc1)C(=O)N[C@H](C(=O)N[C@@H](CC(C)C)C(=O)O)C(C)(C)C [Compound 16, N^α-methyl-N^ω-[(4-aminobutyl)aminocarbonyl]Arg-Arg-Pro-Tyr-2-tert-butyl-Gly-Leu-OH tetrakis(hydrotrifluoroacetate)] | 2.8 nM | > 99% | > 99% | > 99% | > 99% | – | – | – | – | – | –
CC(C)C[C@H](NC(=O)[C@@H](NC(=O)[C@H](Cc1ccc(O)cc1)NC(=O)[C@@H]1CCCN1C(=O)[C@H](CCCNC(=N)N)NC(=O)[C@@H](N)CCCNC(=N)NC(=O)NCCCCc1cn([C@@H]2O[C@H](CF)[C@@H](O)[C@H](O)[C@H]2O)nn1)C(C)(C)C)C(=O)O [Compound 11, H-{N^ω-[N-(4-{1-[6-deoxy-6-fluoro-β-D-glucopyranosyl]-1H-1,2,3-triazol-4-yl}butyl)aminocarbonyl]}Arg-Arg-Pro-Tyr-2-tert-butyl-Gly-Leu-OH tris(hydrotrifluoroacetate)] | 4.6 nM | 1.1 ± 0.1% | – | – | – | – | 72 ± 1% | 24 ± 1% | < 1% | – | –
CC(C)C[C@H](NC(=O)[C@@H](NC(=O)[C@H](Cc1ccc(O)cc1)NC(=O)[C@@H]1CCCN1C(=O)[C@H](CCCNC(=N)N)NC(=O)[C@@H](N)CCCNC(=N)NC(=O)NCCCCNC(=O)CCc1cn([C@@H]2O[C@H](CF)[C@@H](O)[C@H](O)[C@H]2O)nn1)C(C)(C)C)C(=O)O [Compound 20, H-(N^ω-{N-[4-(3-{1-[6-deoxy-6-fluoro-β-D-glucopyranosyl]-1H-1,2,3-triazol-4-yl}propanoyl)aminobutyl]aminocarbonyl})Arg-Arg-Pro-Tyr-2-tert-butyl-Gly-Leu-OH tris(hydrotrifluoroacetate)] | 2.5 nM | 6.4 ± 0.1% | – | < 1% | – | – | 78 ± 1% | – | – | – | –
CN[C@@H](CCCNC(=N)N)C(=O)N[C@@H](CCCNC(=N)NC(=O)NCCCCc1cn([C@@H]2O[C@H](CF)[C@@H](O)[C@H](O)[C@H]2O)nn1)C(=O)N1CCC[C@H]1C(=O)N[C@@H](Cc1ccc(O)cc1)C(=O)N[C@H](C(=O)N[C@@H](CC(C)C)C(=O)O)C(C)(C)C [Compound 13, N^α-(N^α-methylarginyl)-{N^ω-[N-(4-{1-[6-deoxy-6-fluoro-β-D-glucopyranosyl]-1H-1,2,3-triazol-4-yl}butyl)aminocarbonyl]}Arg-Pro-Tyr-2-tert-butyl-Gly-Leu-OH tris(hydrotrifluoroacetate)] | 6.2 nM | – | > 99% | > 99% | 96 ± 1% | – | – | – | > 99% | – | one-digit nanomolar range
C#CCCC(=O)NCCCCNC(=O)NC(=N)NCCC[C@H](N)C(=O)N[C@@H](CCCNC(=N)N)C(=O)N1CCC[C@H]1C(=O)N[C@@H](Cc1ccc(O)cc1)C(=O)N[C@H](C(=O)N[C@@H](CC(C)C)C(=O)O)C(C)(C)C [Compound 18, H-{N^ω-[N-(4-pent-4-ynoylaminobutyl)aminocarbonyl]}Arg-Arg-Pro-Tyr-2-tert-butyl-Gly-Leu-OH tris(hydrotrifluoroacetate)] | 4.4 nM | < 1% | < 1% | < 1% | – | 4.27 nM | 59 ± 1% | – | – | – | –
